Source: PMC10096391, “Discovery of N,4-Di(1H-pyrazol-4-yl)pyrimidin-2-amine-Derived CDK2 Inhibitors as Potential Anticancer Agents: Design, Synthesis, and Evaluation” (Molecules, 2023)
Values belong to the compound of their own block, whether it stands above or below them.

How the values were obtained:
[1] = system: OVCAR5 cells; assay: Colony formation (crystal violet), OVCAR5; assay type: cell-based; conditions: OVCAR5, 10 days; 15 at 0.5 and 2 µM, CYC065 at 0.5 µM
Method: (§1) Briefly, ovarian cancer cells (i.e., A2780, OVCAR5, and OV90) seeded in six-well plates were adhered for 6 h and treated with 15. The medium that contained the compound was then changed every 72 h. Ten days after treatment, the cells were washed with PBS, fixed, and stained with crystal violet staining solution (0.05% crystal violet, 1% formaldehyde, 1% PBS, and 1% ethanol), and colonies were quantified using ImageJ software (National Institute of Health, Maryland, USA), with data presented as percentages of the control cells.

[2] = system: OV90 cells; assay: Colony formation (crystal violet), OV90; assay type: cell-based; conditions: OV90, 10 days; 15 at 0.5 and 2 µM, CYC065 at 0.5 µM
Method: as §1

[3] = system: OVCAR5 cells; assay: Annexin V/PI apoptosis assay, OVCAR5; assay type: cell-based; conditions: OVCAR5, 0.5 µM, 48 h
Method: (§2) Annexin V-fluorescein isothiocyanate (FITC) apoptosis detection kit I (consisting of a ten-time stock solution of binding buffer, FITC–annexin V, and PI staining solution) was used to determine the effect of the compounds on cancer cell survival as previously reported. Briefly, six-well plates (Sigma-Aldrich, NSW, Australia) were seeded with about 1–2 × 10^5 cells/well in 2 mL growth medium, incubated at 37 °C and 5% CO2 overnight, treated with various concentrations of the test compounds, and incubated for 48 h. The wells were collected by trypsinization, transferred into FACS tubes, washed twice with 1 × PBS, and centrifuged at 300× g for 5 min. The pellets were then suspended in 100 µL of 1 × binding buffer and incubated in the dark with 3 µL of PI and 3 µL of FITC-conjugated annexin V solutions for 15 min. Finally, 200 µL of binding buffer was added to each sample and analyzed by the CytoFLEX cytometer. The extent of apoptotic cell death was quantified as the sum of the percentages of early apoptotic cells (annexin V-positive and PI-negative) and late apoptotic cells (both annexin–V- and PI-positive) and presented graphically as a contour diagram relative to the untreated control.

[4] = system: A2780 cells; assay: Annexin V/PI apoptosis assay, A2780; assay type: cell-based; conditions: A2780, 0.5 µM, 48 h
Method: as §2

[5] = system: OVCAR5 cells; assay: Cell cycle analysis by flow cytometry, OVCAR5; assay type: cell-based; conditions: OVCAR5, 0.5 µM, 48 h
Method: (§3) The effect of the compounds on cell cycle distribution was evaluated following a previously reported method. Briefly, six-well plates (Sigma-Aldrich, NSW, Australia) were seeded with about 1–2 × 10^5 cells/well in 2 mL growth medium, incubated at 37 °C and 5% CO2 overnight, and treated with various concentrations of the test compounds and incubated for 48 h. The wells were collected by trypsinization, transferred into fluorescence-activating cell sorting (FACS) tubes, washed with 1 × phosphate-buffered saline (1 × PBS) twice, fixed in 70% (v/v) ice-cold ethanol for 15 min, and centrifuged at 300× g for 5 min. The cell pellets were then collected, stained with 200 µL of the cell cycle solution (comprising 50.0 μg/mL PI, 0.1 mg/mL RNase A, and 0.05% Triton X-100), and incubated for 1.5 h at room temperature in the dark. Finally, the DNA content was determined by a flow cytometer (CytoFLEX) and analyzed by CytExpert 2.1 software (Beckman Coulter, Brea, CA, USA).

[6] = system: A2780 cells; assay: Cell cycle analysis by flow cytometry, A2780; assay type: cell-based; conditions: A2780, 0.5 µM, 48 h
Method: as §3

[7] = system: A2780 cells; assay: Colony formation (crystal violet), A2780; assay type: cell-based; conditions: A2780, 10 days; 15 at 0.5 and 2 µM, CYC065 at 0.5 µM
Method: as §1

[8] = system: A2780 ovarian cancer cells; design: method as in PMID 36706608; conditions: previously reported data for 1; cited from earlier work
[9] = biological target: T1, CDK5/p25 (CDK5p25) (Homo sapiens, UniProt Q00535); design: method as in PMID 36706608; conditions: previously reported data for 1; cited from earlier work
T1 sequence (Q00535 whole entry): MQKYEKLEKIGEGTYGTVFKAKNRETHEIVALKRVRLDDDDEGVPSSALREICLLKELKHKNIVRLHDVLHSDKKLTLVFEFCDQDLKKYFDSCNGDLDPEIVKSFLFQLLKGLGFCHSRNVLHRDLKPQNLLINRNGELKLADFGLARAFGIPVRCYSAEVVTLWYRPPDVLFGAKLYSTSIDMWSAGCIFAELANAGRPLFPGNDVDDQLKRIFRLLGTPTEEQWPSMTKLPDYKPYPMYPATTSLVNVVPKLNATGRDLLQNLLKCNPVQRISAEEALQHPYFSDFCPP
T1 sequence (Q15078 99-307 partner limits assumed): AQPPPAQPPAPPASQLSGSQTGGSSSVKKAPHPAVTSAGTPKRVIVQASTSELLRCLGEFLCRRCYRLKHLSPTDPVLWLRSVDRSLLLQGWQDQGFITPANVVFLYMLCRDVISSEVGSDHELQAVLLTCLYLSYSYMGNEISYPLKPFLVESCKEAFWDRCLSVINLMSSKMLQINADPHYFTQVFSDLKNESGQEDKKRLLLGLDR

[10] = biological target: T2, CDK9/cyclin T1 (CDK9T1) (Homo sapiens, UniProt P50750); design: method as in PMID 36706608; conditions: previously reported data for 1; cited from earlier work
T2 sequence (P50750 whole entry): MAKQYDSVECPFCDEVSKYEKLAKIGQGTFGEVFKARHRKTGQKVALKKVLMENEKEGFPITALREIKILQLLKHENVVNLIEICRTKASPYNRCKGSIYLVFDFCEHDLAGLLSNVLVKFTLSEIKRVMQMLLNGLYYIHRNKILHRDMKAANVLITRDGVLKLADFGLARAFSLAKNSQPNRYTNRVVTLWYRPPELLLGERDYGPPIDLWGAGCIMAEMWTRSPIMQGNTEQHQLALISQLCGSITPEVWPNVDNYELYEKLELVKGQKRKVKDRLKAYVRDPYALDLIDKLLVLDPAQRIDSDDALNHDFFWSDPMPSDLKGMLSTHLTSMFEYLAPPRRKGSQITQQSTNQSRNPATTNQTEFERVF
T2 sequence (O60563 whole entry partner): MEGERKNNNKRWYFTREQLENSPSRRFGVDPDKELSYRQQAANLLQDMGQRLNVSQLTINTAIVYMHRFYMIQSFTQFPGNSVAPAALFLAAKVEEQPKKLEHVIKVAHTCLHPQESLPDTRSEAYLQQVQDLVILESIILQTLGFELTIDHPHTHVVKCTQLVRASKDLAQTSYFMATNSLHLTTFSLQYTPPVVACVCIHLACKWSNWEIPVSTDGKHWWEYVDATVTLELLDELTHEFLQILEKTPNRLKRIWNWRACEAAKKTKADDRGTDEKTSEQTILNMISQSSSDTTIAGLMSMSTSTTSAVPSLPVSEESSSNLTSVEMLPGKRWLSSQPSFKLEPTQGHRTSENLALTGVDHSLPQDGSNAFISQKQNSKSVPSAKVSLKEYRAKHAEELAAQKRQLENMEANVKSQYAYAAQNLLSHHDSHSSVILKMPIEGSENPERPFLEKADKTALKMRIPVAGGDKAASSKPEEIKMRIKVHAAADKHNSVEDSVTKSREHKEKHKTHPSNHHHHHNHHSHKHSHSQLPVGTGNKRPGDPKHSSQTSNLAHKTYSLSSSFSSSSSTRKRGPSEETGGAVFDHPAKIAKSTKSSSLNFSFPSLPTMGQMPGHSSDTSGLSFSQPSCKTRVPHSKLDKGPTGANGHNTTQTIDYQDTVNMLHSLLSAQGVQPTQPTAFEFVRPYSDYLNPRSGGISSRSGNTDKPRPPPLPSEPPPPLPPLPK

[11] = biological target: T3, CDK2/cyclin E (CDK2E) (Homo sapiens, UniProt P24941); design: method as in PMID 36706608; conditions: previously reported data for 1; cited from earlier work
[12] = biological target: T4, CDK1/cyclin B (CDK1B) (Homo sapiens, UniProt P06493); design: method as in PMID 36706608; conditions: previously reported data for 1; cited from earlier work
T4 sequence (P06493 whole entry): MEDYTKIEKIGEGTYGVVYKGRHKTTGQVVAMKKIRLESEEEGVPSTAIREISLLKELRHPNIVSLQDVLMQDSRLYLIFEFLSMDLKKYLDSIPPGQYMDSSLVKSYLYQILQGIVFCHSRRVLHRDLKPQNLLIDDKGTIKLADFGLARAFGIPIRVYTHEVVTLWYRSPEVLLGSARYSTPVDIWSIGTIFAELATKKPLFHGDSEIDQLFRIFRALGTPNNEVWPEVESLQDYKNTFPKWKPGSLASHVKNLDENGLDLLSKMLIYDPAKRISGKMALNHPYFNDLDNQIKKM
T4 sequence (P14635 whole entry partner): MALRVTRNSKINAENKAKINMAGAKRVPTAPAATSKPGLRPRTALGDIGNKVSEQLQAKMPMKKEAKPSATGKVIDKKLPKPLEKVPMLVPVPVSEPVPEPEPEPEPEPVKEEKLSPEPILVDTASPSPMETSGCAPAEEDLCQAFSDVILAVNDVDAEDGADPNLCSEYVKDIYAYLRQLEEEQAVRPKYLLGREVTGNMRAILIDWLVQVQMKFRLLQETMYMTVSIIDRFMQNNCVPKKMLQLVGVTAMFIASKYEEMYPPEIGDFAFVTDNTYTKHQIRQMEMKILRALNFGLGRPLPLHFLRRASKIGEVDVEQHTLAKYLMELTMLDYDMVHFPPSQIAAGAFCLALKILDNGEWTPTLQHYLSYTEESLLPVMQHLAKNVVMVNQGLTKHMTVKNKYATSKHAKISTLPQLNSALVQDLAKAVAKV

[13] = biological target: T1, CDK5/p25 (CDK5p25); assay: ADP-Glo kinase assay, CDK5/p25; assay type: biochemical; conditions: read-out: % Enzymatic Inhibition at 1 µM CDK5p25
Method: (§4) The luminescent ADP-Glo™ assay, which measures the amount of ADP formed in a kinase reaction as described previously, was used to determine the kinase inhibition profile of the compounds. […] Ki values were calculated from their corresponding IC50 values (the concentrations of inhibitors that inhibit the kinase activity by 50%) and the Michaelis–Menten constant (Km) of ATP for each kinase using the Cheng–Prusoff equation as previously stated. In brief, 1 μL of each concentration of the test compounds was added to the respective wells, and to it were added 1 μL of the kinases and their respective substrates, diluted to the desired concentration in kinase reaction buffer ([…] tris base pH 7.5, 20 mM MgCl2, 0.4 µM dithiothreitol, and 0.1 mg/mL bovine serum albumin), and the pH was adjusted by adding 1 μL of a two-fold diluted kinase reaction buffer. To initiate the kinase activity, 1 μL of ATP solution (the concentration varies depending on the type of kinase under investigation) was added to each well, and the mixture was incubated at room temperature (20 to 22 °C) for 30–60 min depending on the kinase being tested. The reaction was then halted, 5 μL of the ADP-Glo reagent was added to each well (removing any unreacted ATP), and it was incubated at room temperature for 40 min. […] Positive controls (the wells without the inhibitor) and negative or blank controls (the wells without the inhibitor and the enzyme, but with 1 × kinase reaction buffer) were also determined in 2.5% DMSO.
(§5) The percentage of kinase inhibition was determined using the following equation: % Residual kinase activity=Luminescence in the presence of inhibitor−Luminescence of blank control/Luminescence in the absence of inhibitor−Luminescence of blank control×100%%kinase inhbition=100%−%Residual kinase activity
(§6) Km is defined as the concentration of ATP or the substrate required to produce 50% of the maximal reaction rate in the kinase reaction. Therefore, since we used the concentration of ATP and the substrate at their Km values, Ki simply equals IC50/2 assuming these inhibitors are ATP-competitive based on the Cheng–Prusoff equation: Ki = IC50/(1 + ([ATP]/Km(ATP))) where [ATP] is the ATP concentration used for the IC50 determination and Km(ATP) for each kinase was determined experimentally.

[14] = biological target: T4, CDK1/cyclin B (CDK1B); assay: ADP-Glo kinase assay, CDK1/cyclin B; assay type: biochemical; conditions: read-out: % Enzymatic Inhibition at 1 µM CDK1B
Method: (§7) The luminescent ADP-Glo™ assay, which measures the amount of ADP formed in a kinase reaction as described previously, was used to determine the kinase inhibition profile of the compounds. […] Ki values were calculated from their corresponding IC50 values (the concentrations of inhibitors that inhibit the kinase activity by 50%) and the Michaelis–Menten constant (Km) of ATP for each kinase using the Cheng–Prusoff equation as previously stated. In brief, 1 μL of each concentration of the test compounds was added to the respective wells, and to it were added 1 μL of the kinases and their respective substrates, diluted to the desired concentration in kinase reaction buffer ([…] tris base pH 7.5, 20 mM MgCl2, 0.4 µM dithiothreitol, and 0.1 mg/mL bovine serum albumin), and the pH was adjusted by adding 1 μL of a two-fold diluted kinase reaction buffer. To initiate the kinase activity, 1 μL of ATP solution (the concentration varies depending on the type of kinase under investigation) was added to each well, and the mixture was incubated at room temperature (20 to 22 °C) for 30–60 min depending on the kinase being tested. The reaction was then halted, 5 μL of the ADP-Glo reagent was added to each well (removing any unreacted ATP), and it was incubated at room temperature for 40 min. Then, to each well, 10 μL of the kinase detection reagent containing luciferin was added, which was incubated once more at room temperature in the dark for 30 min and the luminescence was measured by an EnVision® multi-label plate reader with an integration time of 1.5 s per well. Positive controls (the wells without the inhibitor) and negative or blank controls (the wells without the inhibitor and the enzyme, but with 1 × kinase reaction buffer) were also determined in 2.5% DMSO.
as §5, §6

[15] = biological target: T3, CDK2/cyclin E (CDK2E); assay: ADP-Glo kinase assay, CDK2/cyclin E; assay type: biochemical; conditions: read-out: % Enzymatic Inhibition at 1 µM CDK2E
Method: as §7, §5, §6

[16] = system: A2780 ovarian cancer cells; assay: 72 h MTT antiproliferative assay, A2780; assay type: cell-based; conditions: Homo sapiens, A2780; 1 µM, 72 h MTT; read-out: % Growth Inhibition (GI) at 1 µM A2780
Text: Cancer cell lines derived from leukemia (MV4-11 and U937), breast (MCF7 (Rb-positive) and MDA-MB-231(Rb-negative)), and ovarian (A2780, OVCAR5, OAW28, OV90, Cov318, and Cov504) cancers, and glioblastoma (U87, T98G and U251) were acquired from the cell bank at Drug Discovery and Development, University of South Australia, and cultured according to the American Type Culture Collection (ATCC) recommendation in Roswell Park Memorial Institute (RPMI)-1640, Dulbecco’s Modified Eagle’s Medium (DMEM), or Minimum Essential Media (MEM), with 10% fetal bovine serum (Sigma-Aldrich, Castle Hill, NSW, Australia) within a humidified incubator at 37 °C in the presence of 5% CO2.
The MTT (Life Technologies, Mulgrave, VIC, Australia) and resazurin (Sigma-Aldrich) assays were used to determine the antiproliferative activities of the compounds initially at 1 µM against the cancer cell lines stated above.

[17] = biological target: T2, CDK9/cyclin T1 (CDK9T1); assay: ADP-Glo kinase assay, CDK9/cyclin T1; assay type: biochemical; conditions: read-out: % Enzymatic Inhibition at 1 µM CDK9T1
Method: as §4, §5, §6

SMILES: CC[C@H](Nc1nc(NCc2cnc(C)cc2C)c2ncn(C(C)C)c2n1)[C@@H](C)O [CYC065, reference compound]
effect on colony formation [1]: lowest effect | effect on colony formation [2]: reduced | viability at 0.5 µM ([3]; Homo sapiens, OVCAR-5, read-out: Q1-LL, viable cells): 81.9% | apoptosis (annexin V positive, early + late) [3]: 16% | apoptosis (annexin V positive, early + late) [4]: 73% | viability at 0.5 µM ([4]; Homo sapiens, read-out: Q1-LL, viable cells): 26% | increment in the subpopulation of G2/M cells compared to the vehicle control [5]: 12% | S-phase cells [6]: 24% | Sub-G1 cells [6]: 27% | effect on colony formation [7]: reduced

SMILES: Cn1cc(-c2nc(Nc3cccc(S(N)(=O)=O)c3)ncc2F)cn1 [Compound 1, 3-((5-fluoro-4-(1-methyl-1H-pyrazol-4-yl)pyrimidin-2-yl)amino)benzenesulfonamide]
GI50 [8]: 0.018 µM | Ki [9]: 0.077 µM | Ki [10]: 0.026 µM | Ki [11]: 0.023 µM | Ki [12]: 0.005 µM

inhibition at 1 µM [13]: 58% | inhibition at 1 µM [14]: 49% | inhibition at 1 µM [15]: 64% | inhibition at 1 µM [17]: 45%
SMILES: Cn1cc(Nc2ncc(F)c(-c3ccnn3C)n2)cn1 [Compound 35, 5-Fluoro-N-(1-methyl-1H-pyrazol-4-yl)-4-(1-methyl-1H-pyrazol-5-yl)pyrimidin-2-amine]
inhibition at 1 µM [16]: 19%
